The record followed here is paper PMC12688159, “Chemosensory protein 3 is a brain host factor for the induction of enhanced-locomotory activity in the BmNPV-silkworm infection model” (PLOS Pathogens, 2025).

Assay [1] concerns the target T1, BmCSP3 (chemosensory protein 3) (Bombyx mori, UniProt Q3LBA2).
T1 construct: residues 19–109 of UniProt entry Q3LBA2
T1 sequence (Q3LBA2 19-127): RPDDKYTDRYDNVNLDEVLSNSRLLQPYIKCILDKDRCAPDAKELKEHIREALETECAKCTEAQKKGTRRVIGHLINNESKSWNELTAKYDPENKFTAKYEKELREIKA
Put plainly: 1-NPN fluorescence displacement binding assay with purified protein.

For assay [2], the target named is T1, BmCSP3 (chemosensory protein 3). Put plainly: biochemical. Details: 1-NPN fluorescence displacement from purified BmCSP3; EC50int interpolated, Ki by Cheng-Prusoff. As to conditions: EC50int, 1-NPN displacement; read-out: EC50,int ± SE (μΜ). The procedure:
(§1) The dissociation constant (Kd) of the fluorescent probe 1-NPN (N-Phenyl-1-naphthylamine) was determined in solutions containing 4 μΜ BmCSP3 in 20 mM Tris-HCl pH 8.0, 100 mM NaCl by addition of 0 το 20 μM 1-NPN. To determine the ligands’ Ki, 1-NPN displacement was measured in solutions containing 4 μΜ BmCSP3, 10 μΜ 1-NPN and ligand concentrations ranged from 0-20 μΜ and 0–32 μΜ, for the tested neurotranmiters and lipids, respectively. Control samples containing the ligand and 1-NPN, but lacking protein, were run in parallel to determine background fluorescence, which was subtracted from the experimental data. All experiments were performed in technical triplicate. Given that the bottom values never reaches zero and varied among the different experiments, the ligand concentration that reduced the initial fluorescence by 50% (EC50int) was estimated from the displacement binding curves by interpolation, using the built-in interpolation function of GraphPad Prism.

The target is the same in assay [3]. The experiment in a line: direct fluorescence titration of the probe with purified protein, single-site saturation fit. The format is binding.
The target is the same in assay [4]. The experiment in a line: biochemical. Details: 1-NPN fluorescence displacement binding with purified BmCSP3; Ki by Cheng-Prusoff from interpolated EC50. As to conditions: 4 uM BmCSP3, 10 uM 1-NPN, pH 8.0, 25 °C; read-out: Ki (μΜ). The procedure: as §1, with “triplicate. The determination of dissociation constants and the visualization of the binding curves was carried out using the non-linear regression analysis program GraphPad Prism 8 (www.graphpad.com). The Kd of 1-NPN for BmCSP3 was determined to be 5.8 μΜ by fitting the fluorescence data to a single-binding site saturation model described by the equation” for “triplicate.”, “Prism. Subsequently, the ligand’s dissociation constant (Ki) was determined using the Cheng-Prusoff equation: […]” for “Prism.”

Turning to `Nc1ccccc1C(=O)C[C@H](N)C(=O)O` [L-kynurenine], the Ki in assay [1] (read-out: Ki) turned out to be 0.072 µM. Further, the EC50 in assay [2] is 0.2 ± 0.02 µM.

`c1ccc(Nc2cccc3ccccc23)cc1` [1-NPN, N-Phenyl-1-naphthylamine]: the affinity in assay [3], expressed as Kd, was 5.8 µM.

With `CC/C=C\C/C=C\C=C\[C@@H](O)CCCCCCCC(=O)O` [9(S)-HOTrE, (10E,12Z,15Z)-9-hydroxyoctadeca-10,12,15-trienoic acid], the Ki in assay [1] (read-out: Ki) came to 0.29 µM. For the same compound, the EC50 in assay [2] was 0.79 ± 0.1 µM.

As to `O=C(O)Cc1cc(O)ccc1O` [Homogentisic acid], the Ki in assay [1] turned out to be 2.5 µM. Further, the EC50 in assay [2] is 6.76 ± 1.58 µM.

In the case of `NCCCC(N)C(=O)O` (racemic) [DL-Ornithine], the EC50 in assay [2] is over 20 µM. The Ki in assay [4] was over 20 µM.

`NCCc1c[nH]c2ccccc12` [Tryptamine] showed a Ki in assay [1] of 0.011 µM. Moreover, the EC50 in assay [2] is 0.03 ± 0.01 µM.

In the case of `NCCc1c[nH]c2ccc(O)cc12` [Serotonin], the affinity in assay [1] corresponds to a Ki of 1.8 µM. The EC50 in assay [2] turned out to be 4.81 ± 1.17 µM.

Take `NC(=O)CC[C@H](N)C(=O)O` [L-glutamine]: in assay [1] (read-out: Ki), the Ki came to 2.8 µM. The EC50 in assay [2] turned out to be 7.78 ± 1.48 µM.

As for `CC(=O)NCCc1c[nH]c2ccc(O)cc12` [N-acetylserotonin], the Ki in assay [1] (read-out: Ki) came to 2.13 µM. The EC50 in assay [2] was 5.82 ± 1.13 µM.

Consider `NCC(=O)O` [Glycine], for which, in assay [2], the EC50 was over 20 µM. Besides, in assay [4], the Ki is over 20 µM.

In the case of `NCCCC[C@H](N)C(=O)O` [L-lysine], the EC50 in assay [2] was over 20 µM. Besides, the Ki in assay [4] was over 14 µM.

As a reminder, the Ki is a measure of affinity in units of concentration, obtained from inhibition or displacement. In general, EC50 refers to the concentration needed to bring the measured effect to its halfway point. Broadly, the Kd is the equilibrium constant for the complex coming apart. The low end stands for tighter binding, the high end for weaker binding.
